According to paper PMC3749181, “Rapid Identification of Antifungal Compounds against Exserohilum rostratum Using High Throughput Drug Repurposing Screens” (PLoS ONE, 2013):
Where “and” joins values, the source holds several entries; their conditions need not be identical. Equal values may be shown once. Read-outs that look alike come from different tables or passages of the source.

Experiments:
[1] = test system: E. rostratum; experiment: drug repurposing screen against E. rostratum; format: cell-based, Exserohilum rostratum; details: in our experiments
Description: The library of pharmacologically active compounds (LOPAC) consists of 1280 small molecules with characterized biological activities. The LOPAC library (Sigma-Aldrich) has been extensively used for HTS assay validations, [18]. The NIH Chemical Genomics Center Pharmaceutical (NPC) collection was constructed in-house through a combined effort of compound purchasing and custom synthesis and recently expanded to 4096 compounds. In this drug libarary, 52% of which are drugs approved for human or animal use by the United States Food and Drug Administration (FDA), 22% are drugs approved in Europe, Canada, or Japan, and the remaining 25% are compounds that have entered clinical trials or are research compounds commonly used in biomedical research. […] 2.5 µl/well PBS was dispensed into 1536-well plates using a Multidrop-Combi dispenser. Compound in DMSO solution was transferred in a volume of 23 nl/well using a NX-TR pintool station (WAKO Scientific Solutions, San Diego, CA). This additional PBS step for compound addition was designed to prevent the potential fungal contamination of compound libraries. The hyphal fragments in PBS were then added at 2.5 µl/well for a final seeding density of 15,000 hyphal fragments/well using the Multidrop-Combi dispenser. The final compound concentration was 46 µM in the primary screen. […]

[2] = test system: E. rostratum hyphal fragments; experiment: colony formation assay of hyphal fragments; format: cell-based, Exserohilum rostratum; details: 2 times respective IC50, 37°C, 24 h; p<0.01
Procedure: 10 µl of hyphal suspension (processed as described above) was transferred to 1.7 mL microfuge tubes, each containing 28 nM amphotericin B, 242 nM posaconazole, or 10% DMSO in 1 ml PBS. Tubes containing hyphae and drug were incubated at 37°C in a shaking incubator for 24 h, then 200 µl of the hyphae drug suspension was spread on Yeast Extract Peptone Dextrose (YPD) plates for 24 h at 30°C and the number of colony forming units were scored. The experiments were performed in triplicate.
Mixtures were cultured at 37°C in a shaking incubator for 24 h, then the hyphal suspensions were inoculated on Yeast Extract Peptone Dextrose (YPD) plates that were incubated for 1 day. The number of colonies on each YPD plate was counted.

[3] = test system: E. rostratum; parameters: method as in earlier work; details: filamentous fungi M38-A2, this isolate; cited from earlier work
[4] = test system: E. rostratum hyphal fragments; experiment: hyphal fragment fungicidal ATP content assay (PBS, 1536-well); format: cell-based, Exserohilum rostratum; details: Exserohilum rostratum; for Emax: 46 µM Amphotericin B = 100%
Method in brief: (§1)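 Fungicidal screen: OD-normalised hyphal fragments (15,000/well) in PBS, or conidia (250/well) in RPMI, exposed 24 h at 30°C to compound at 46 µM. Viability read as ATP luminescence (ATPLite), normalised to DMSO (100%) and 46 µM amphotericin B (0%).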

[5] = test system: SH-SY5Y cells; experiment: SH-SY5Y cytotoxicity counter-screen (ATP content assay); format: cell-based, Human; details: for SH-SY5Y % Max. Resp.: Table 2, SH-SY5Y, inact. = no significant activity at 46 µM
Method in brief: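 SH-SY5Y human neuroblastoma cells grown in DMEM/F-12 with 10% FBS at 37 °C, 5% CO2. Viability counter-screen measured cellular ATP by luciferase luminescence (ATPLite) in 1536-well format.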

[6] = test system: E. rostratum conidia; experiment: conidia growth inhibition ATP content assay (RPMI, 1536-well); format: cell-based, Exserohilum rostratum; details: for Emax: 46 µM Amphotericin B = 100%
Method in brief: as §1

[7] = parameters: method as in PMID 12445558; details: 8 hours after intravenous (iv) administration of 20 mg/kg; cited from earlier work
[8] = Table 2, inact. = no significant activity in the primary screen, read-out: Hyphae % Max. Resp.
[9] = Table 2, 24 h, inact. = no significant activity in the primary screen, read-out: Hyphae IC50
[10] = Exserohilum rostratum, 24 h, Table 2, 24 h, inact. = no significant activity at the highest compound concentration (46 µM), read-out: Conidia IC50
[11] = Exserohilum rostratum, Table 2, inact. = no significant activity at 46 µM, read-out: Conidia % Max. Resp.

| SMILES | hyphae-derived colony forming units (CFU) compared to DMSO control [2] | value determined from the microdilution method [3] | Emax [4, 8] [%] | IC50 [4, 9] [µM] | SH-SY5Y % Max. Resp. ([5]; 46 µM Amphotericin B = 100%) | SH-SY5Y % Max. Resp. [5] | IC50 [6, 10] [µM] | Emax [6, 11] [%] | further results |
| --- | --- | --- | --- | --- | --- | --- | --- | --- | --- |
| CCCSc1ccc2nc(NC(=O)OC)[nH]c2c1 [albendazole] |  |  |  |  |  |  |  |  | activity against E. rostratum [1]: not active |
| C[C@@H](c1ncncc1F)[C@](O)(Cn1cncn1)c1ccc(F)cc1F [Voriconazole] | significantly reduced | 2 µg/ml and 5.7 µM | 94 | 2.6 | inact. | inact. | 2.9 | 101 | IC50 ([4]; Figure 5, read-out: IC50 Hyphae): 2.82 µM; IC50 ([4]; read-out: hyphae IC50): 2.64 µM; cytotoxicity in SH-SY5Y mammalian cells ([5]; concentration up to 46 µM): no significant cytotoxicity; IC50 ([6]; Exserohilum rostratum, Figure 5, read-out: IC50 Conidia): 3.7 µM; IC50 ([6]; Exserohilum rostratum, read-out: conidia IC50): 2.91 µM |
| O=c1[nH]c(=O)n([C@H]2C[C@H](O)[C@@H](CO)O2)cc1F [Floxuridine] | significantly reduced |  | 77 | 0.846 | inact. | inact. | 0.288 | 29 | brain concentrations [7]: above 600 nM |
| C[C@@H]1[C@H](O)[C@@H](C)/C=C/C=C/C=C/C=C/C=C/C=C/C=C/[C@H](O[C@@H]2O[C@H](C)[C@@H](O)[C@H](N)[C@@H]2O)C[C@@H]2O[C@](O)(C[C@@H](O)C[C@@H](O)[C@H](O)CC[C@@H](O)C[C@@H](O)CC(=O)O[C@H]1C)C[C@H](O)[C@H]2C(=O)O [Amphotericin B] | significantly reduced | 60 nM | 84 | 0.014 | inact. | inact. | 0.012 | 104 | IC50 ([4]; 15000 fragments/well, read-out: hyphae IC50): 0.0124 µM; Emax ([4]; Table S1, Inact. = no significant activity in the primary screen, read-out: Hyphae % M. Res.): 84%; SH-SY5Y % M. Res. ([5]; Table S1, 46 µM Amphotericin B = 100%, Inact. = no significant activity at 46 µM): Inact.; SH-SY5Y IC50 ([5]; Table S1, Inact. = no significant activity at the highest compound concentration (46 µM)): Inact.; IC50 ([6]; 250 conidia/well, read-out: conidia IC50): 0.00971 µM; IC50 ([6]; Exserohilum rostratum, Table S1, Inact. = no significant activity at the highest compound concentration (46 µM), read-out: Conidia IC50): 0.806 µM; IC50 ([6]; Exserohilum rostratum, 250 conidia/well, read-out: conidia IC50): 0.00941 µM; Emax ([6]; Exserohilum rostratum, Table S1, Inact. = no significant activity at 46 µM, read-out: Conidia % M. Res.): 104% |
